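The compound was tested at five concentrations on cells cultured in 96-well plates, with a 48-hour exposure period. Abbreviation: GI50, concentration required for 50% inhibition of growth.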 Active and inactive are the calls of the source. Cut-off read from the data, not from the text of the source: active = GI50 up to about 1.1 µM and inactive = higher.
Key:
Assay in all cases: NCI tumour cell line growth inhibition, 48 h
[1] = test system: ACHN
[2] = test system: HT-29
[3] = test system: UACC-257
[4] = test system: MDA-MB-231
[5] = test system: LOX IMVI
[6] = test system: K562
[7] = test system: UO-31
[8] = test system: SR
[9] = test system: SF-268
[10] = test system: U-251
[11] = test system: EKVX
[12] = test system: UACC-62
[13] = test system: SF-539
[14] = test system: SNB-19
[15] = test system: SNB-75
[16] = test system: SK-MEL-5
[17] = test system: KM12
[18] = test system: CAKI-1
[19] = test system: HL-60
[20] = test system: MOLT-4

Compound | GI50 [1] | GI50 [2] | GI50 [3] | GI50 [4] | GI50 [5] | GI50 [6] | GI50 [7] | GI50 [8] | GI50 [9] | GI50 [10] | GI50 [11] | GI50 [12] | GI50 [13] | GI50 [14] | GI50 [15] | GI50 [16] | GI50 [17] | GI50 [18] | GI50 [19] | GI50 [20]
CCOC(=O)C(C)c1nc2cc3cccnc3c(Cl)c2[nH]c1=O (stereo not drawn) | 94.6 µM (inactive) | > 100 µM (inactive) | > 100 µM (inactive) | 82 µM (inactive) | > 100 µM (inactive) | > 100 µM (inactive) | > 100 µM (inactive) | 73.6 µM (inactive) | 86.1 µM (inactive) | > 100 µM (inactive) | > 100 µM (inactive) | > 100 µM (inactive) | > 100 µM (inactive) | > 100 µM (inactive) | > 100 µM (inactive) | > 100 µM (inactive) | > 100 µM (inactive) | > 100 µM (inactive) | > 100 µM (inactive) | –
NC(Cc1ccccc1)C(=O)NC(Cc1ccccc1)NC(=O)C(Cc1c[nH]c2ccccc12)C(=O)O (stereo not drawn) | > 100 µM (inactive) | > 100 µM (inactive) | > 100 µM (inactive) | > 100 µM (inactive) | > 100 µM (inactive) | – | 51.9 µM (inactive) | > 100 µM (inactive) | > 100 µM (inactive) | > 100 µM (inactive) | > 100 µM (inactive) | > 100 µM (inactive) | > 100 µM (inactive) | > 100 µM (inactive) | > 100 µM (inactive) | 12 µM (inactive) | > 100 µM (inactive) | > 100 µM (inactive) | > 100 µM (inactive) | –
CCN1CN(c2ccccc2)C2(CCN(CC3COc4ccccc4O3)CC2)C1=O (stereo not drawn) | 23.1 µM (inactive) | 20.1 µM (inactive) | 35.3 µM (inactive) | 2.57 µM (inactive) | 17.9 µM (inactive) | 37.9 µM (inactive) | 29 µM (inactive) | 5.13 µM (inactive) | 42.5 µM (inactive) | 30.6 µM (inactive) | – | 23.3 µM (inactive) | 18.6 µM (inactive) | 36.2 µM (inactive) | 30.2 µM (inactive) | 18.2 µM (inactive) | 17.5 µM (inactive) | 43 µM (inactive) | 16.1 µM (inactive) | 14.5 µM (inactive)
COc1cccc(/C=C/c2cnc3ccccc3n2)c1OC | 50.1 µM (inactive) | 26.4 µM (inactive) | 37.4 µM (inactive) | 22 µM (inactive) | 36.6 µM (inactive) | 71 µM (inactive) | 34.1 µM (inactive) | > 100 µM (inactive) | 31.3 µM (inactive) | 39.3 µM (inactive) | 33 µM (inactive) | 28.4 µM (inactive) | 45.7 µM (inactive) | – | 13.4 µM (inactive) | 17.1 µM (inactive) | 30.8 µM (inactive) | 45.2 µM (inactive) | 34.4 µM (inactive) | 12.9 µM (inactive)
Clc1nc(Cl)c(-c2ccccc2)c(Cl)n1 | 0.29 µM (active) | 7.66 µM (inactive) | 2.82 µM (inactive) | 3.24 µM (inactive) | 1.66 µM (inactive) | 2.9 µM (inactive) | 4.61 µM (inactive) | 2.48 µM (inactive) | 3.19 µM (inactive) | 5.32 µM (inactive) | 1.8 µM (inactive) | 3.09 µM (inactive) | 5.42 µM (inactive) | 14.5 µM (inactive) | 0.64 µM (active) | 3.18 µM (inactive) | 4.68 µM (inactive) | 1.87 µM (inactive) | 2.15 µM (inactive) | 2.96 µM (inactive)
O=[N+]([O-])c1nccn1CCCNCCCn1ccnc1[N+](=O)[O-] | > 100 µM (inactive) | 85.9 µM (inactive) | > 100 µM (inactive) | > 100 µM (inactive) | 74.6 µM (inactive) | > 100 µM (inactive) | > 100 µM (inactive) | > 100 µM (inactive) | > 100 µM (inactive) | > 100 µM (inactive) | > 100 µM (inactive) | > 100 µM (inactive) | > 100 µM (inactive) | – | > 100 µM (inactive) | > 100 µM (inactive) | > 100 µM (inactive) | > 100 µM (inactive) | > 100 µM (inactive) | > 100 µM (inactive)
CCCCCCCCCCCCCCCCCCOCC(CCP(=O)(CP(=O)(O)O)Oc1ccccc1)OCCCCCCCCCCCCCCCCCC (stereo not drawn) | > 100 µM (inactive) | > 100 µM (inactive) | > 100 µM (inactive) | > 100 µM (inactive) | > 100 µM (inactive) | > 100 µM (inactive) | – | > 100 µM (inactive) | > 100 µM (inactive) | > 100 µM (inactive) | > 100 µM (inactive) | > 100 µM (inactive) | > 100 µM (inactive) | > 100 µM (inactive) | > 100 µM (inactive) | > 100 µM (inactive) | > 100 µM (inactive) | > 100 µM (inactive) | > 100 µM (inactive) | > 100 µM (inactive)

Source: ChEMBL document CHEMBL1201862, “PubChem BioAssay data set” (2004)
